The NIST ThermoML archive (doi:10.1016/j.fluid.2016.08.002)

Test: xn = mol fraction of the nth substance listed
Settings: Gas, Vibrating tube method

S [hydrogen sulfide] + C
Settings	mass density [kg/m3]
252.89 K, 10727 kPa, x2 = 0.8197	209.51
252.89 K, 11063 kPa, x2 = 0.8197	217.25
252.89 K, 11429 kPa, x2 = 0.8197	224.63
252.9 K, 9948 kPa, x2 = 0.8197	181.75
252.9 K, 10181 kPa, x2 = 0.8197	191.68
252.9 K, 10440 kPa, x2 = 0.8197	200.58
252.9 K, 11825 kPa, x2 = 0.8197	231.88
252.9 K, 12251 kPa, x2 = 0.8197	239.02
252.91 K, 9089 kPa, x2 = 0.8197	146
252.91 K, 9296 kPa, x2 = 0.8197	153.9
252.91 K, 9508 kPa, x2 = 0.8197	162.6
252.91 K, 9727 kPa, x2 = 0.8197	172.12
252.91 K, 12717 kPa, x2 = 0.8197	246.1
252.92 K, 13223 kPa, x2 = 0.8197	253.09
252.92 K, 13782 kPa, x2 = 0.8197	260.02
252.94 K, 1010 kPa, x2 = 0.714	10.45
252.94 K, 14392 kPa, x2 = 0.8197	266.89
252.95 K, 1513 kPa, x2 = 0.714	16.11
252.95 K, 15070 kPa, x2 = 0.8197	273.89
252.96 K, 508 kPa, x2 = 0.714	5.18
252.97 K, 15829 kPa, x2 = 0.8197	280.91
252.98 K, 16314 kPa, x2 = 0.8197	285.18
252.99 K, 16702 kPa, x2 = 0.8197	288.37
253 K, 2008 kPa, x2 = 0.714	22.87
253 K, 21010 kPa, x2 = 0.8197	317.91
253 K, 21473 kPa, x2 = 0.8197	320.52
253 K, 21973 kPa, x2 = 0.8197	323.2
253 K, 22531 kPa, x2 = 0.8197	326.01
253 K, 22822 kPa, x2 = 0.8197	327.46
253 K, 23125 kPa, x2 = 0.8197	329.05
253.01 K, 17275 kPa, x2 = 0.8197	293.02
253.01 K, 20084 kPa, x2 = 0.8197	312.27
253.01 K, 20574 kPa, x2 = 0.8197	315.19
253.01 K, 23774 kPa, x2 = 0.8197	332.07
253.01 K, 24145 kPa, x2 = 0.8197	333.77
253.02 K, 2407 kPa, x2 = 0.714	28.16
253.02 K, 17701 kPa, x2 = 0.8197	296.11
253.02 K, 18537 kPa, x2 = 0.8197	302.29
253.02 K, 19009 kPa, x2 = 0.8197	305.49
253.02 K, 19564 kPa, x2 = 0.8197	309.06
253.02 K, 24553 kPa, x2 = 0.8197	335.64
253.02 K, 25031 kPa, x2 = 0.8197	337.77
253.03 K, 225 kPa, x2 = 0.8197	2.1
253.03 K, 18070 kPa, x2 = 0.8197	299
253.03 K, 25582 kPa, x2 = 0.8197	340.15
253.04 K, 26249 kPa, x2 = 0.8197	342.94
253.05 K, 472 kPa, x2 = 0.8197	4.43
253.05 K, 26980 kPa, x2 = 0.714	414.51
253.06 K, 26459 kPa, x2 = 0.714	412.74
253.06 K, 27510 kPa, x2 = 0.8197	348.27
253.07 K, 1105 kPa, x2 = 0.8197	10.58
253.07 K, 23585 kPa, x2 = 0.714	402.01
253.07 K, 26760 kPa, x2 = 0.8197	345.19
253.07 K, 27152 kPa, x2 = 0.8197	346.63
253.07 K, 27494 kPa, x2 = 0.714	416.29
253.07 K, 28062 kPa, x2 = 0.8197	350.41
253.08 K, 1496 kPa, x2 = 0.8197	14.53
253.08 K, 2006 kPa, x2 = 0.8197	20.39
253.08 K, 28543 kPa, x2 = 0.8197	352.25
253.08 K, 28966 kPa, x2 = 0.8197	353.85
253.08 K, 29496 kPa, x2 = 0.8197	355.79
253.08 K, 30039 kPa, x2 = 0.8197	357.73
253.09 K, 23043 kPa, x2 = 0.714	399.91
253.09 K, 24033 kPa, x2 = 0.714	403.73
253.09 K, 25963 kPa, x2 = 0.714	410.91
253.1 K, 21049 kPa, x2 = 0.714	391.7
253.1 K, 28034 kPa, x2 = 0.714	418.14
253.11 K, 20550 kPa, x2 = 0.714	389.58
253.11 K, 25528 kPa, x2 = 0.714	409.34
253.12 K, 4809 kPa, x2 = 0.8197	59.33
253.12 K, 19058 kPa, x2 = 0.714	382.7
253.12 K, 24495 kPa, x2 = 0.714	405.58
253.13 K, 5304 kPa, x2 = 0.8197	67.27
253.13 K, 17511 kPa, x2 = 0.714	374.95
253.13 K, 28568 kPa, x2 = 0.714	420
253.14 K, 16004 kPa, x2 = 0.714	366.38
253.14 K, 25004 kPa, x2 = 0.714	407.49
253.15 K, 19521 kPa, x2 = 0.714	384.91
253.15 K, 21583 kPa, x2 = 0.714	393.97
253.15 K, 22523 kPa, x2 = 0.714	397.9
253.16 K, 3517 kPa, x2 = 0.8197	38.95
253.16 K, 15038 kPa, x2 = 0.714	360.04
253.16 K, 18491 kPa, x2 = 0.714	380.05
253.16 K, 20070 kPa, x2 = 0.714	387.42
253.16 K, 29087 kPa, x2 = 0.714	421.82
253.16 K, 29450 kPa, x2 = 0.714	423.08
253.16 K, 30025 kPa, x2 = 0.714	425.02
253.17 K, 14005 kPa, x2 = 0.714	352.44
253.17 K, 22039 kPa, x2 = 0.714	395.89
253.18 K, 4507 kPa, x2 = 0.8197	52.31
253.18 K, 17054 kPa, x2 = 0.714	372.46
253.19 K, 4054 kPa, x2 = 0.8197	46.42
253.19 K, 18047 kPa, x2 = 0.714	377.75
253.21 K, 2947 kPa, x2 = 0.8197	32.5
253.21 K, 16513 kPa, x2 = 0.714	369.43
253.22 K, 15498 kPa, x2 = 0.714	363.19
253.23 K, 13535 kPa, x2 = 0.714	348.43
253.25 K, 2607 kPa, x2 = 0.8197	28.21
253.25 K, 14514 kPa, x2 = 0.714	356.43
253.27 K, 13000 kPa, x2 = 0.714	342.99
253.28 K, 188 kPa, x2 = 0.8685	1.76
253.29 K, 508 kPa, x2 = 0.8685	4.8
253.29 K, 24245 kPa, x2 = 0.8685	303.67
253.29 K, 24733 kPa, x2 = 0.8685	306.89
253.3 K, 1250 kPa, x2 = 0.8685	12.25
253.3 K, 25670 kPa, x2 = 0.8685	310.08
253.31 K, 1824 kPa, x2 = 0.8685	18.07
253.31 K, 29542 kPa, x2 = 0.8685	326.32
253.32 K, 5258 kPa, x2 = 0.8685	55.98
253.32 K, 6503 kPa, x2 = 0.8685	73.25
253.32 K, 27359 kPa, x2 = 0.8685	317.71
253.32 K, 27986 kPa, x2 = 0.8685	320.59
253.33 K, 2475 kPa, x2 = 0.8685	24.75
253.33 K, 5174 kPa, x2 = 0.8685	53.92
253.33 K, 5895 kPa, x2 = 0.8685	64.88
253.33 K, 28601 kPa, x2 = 0.8685	322.89
253.33 K, 29015 kPa, x2 = 0.8685	324.42
253.33 K, 30002 kPa, x2 = 0.8685	327.17
253.34 K, 4807 kPa, x2 = 0.8685	49.57
253.34 K, 6994 kPa, x2 = 0.8685	80.75
253.35 K, 3335 kPa, x2 = 0.8685	33.57
253.35 K, 7572 kPa, x2 = 0.8685	90
253.35 K, 7961 kPa, x2 = 0.8685	99.59
253.36 K, 4114 kPa, x2 = 0.8685	41.57
253.36 K, 7255 kPa, x2 = 0.8685	84.54
253.36 K, 8383 kPa, x2 = 0.8685	108.5
253.37 K, 8539 kPa, x2 = 0.8685	112.16
253.38 K, 4487 kPa, x2 = 0.8685	45.79
253.38 K, 8660 kPa, x2 = 0.8685	115.11
253.38 K, 8850 kPa, x2 = 0.8685	119.77
253.39 K, 9030 kPa, x2 = 0.8685	124.2
